Results from US12629368B2, “Use of N-(3-(4-(3-(diisobutylamino)propyl)piperazin-1-yl)propyl)-1H-benzo[d]imidazol-2-amine sulphate salts and solvates thereof for the treatment of motor neuron diseases and neuromuscular junction disorders” (ALZPROTECT, priority 2020, dated 2026).

Assays:
[1] = system: primary culture of rat spinal motor neurons; test: Rat primary spinal motor neurons injured with glutamate, 48 h co-incubation (Example 1); assay type: cell-based; conditions: 48 h incubation
Experimental: (§1) Rat motor neurons (MN) were cultured as previously described by Martinou et al., Neuron. 1992, April; 8(4), 737-44 and Wang et al. Hum. Mol. Genet., 2013 Dec. 1; 22(23), 4706-19. Pregnant female rats of 14 days gestation (Rats Wistar; Janvier Labs France) were killed using a deep anesthesia with CO2 followed by cervical dislocation. Then, fetuses were removed from the uterus and immediately placed in ice-cold L15 Leibovitz medium with a 2% penicillin (10,000 U/mL) and streptomycin (10 mg/mL) solution (PS) and 1% bovine serum albumin (BSA). Spinal cords were treated for 20 min at 37° C. with a trypsin-Ethylenediaminetetraacetic acid (EDTA) solution at a final concentration of 0.05% trypsin and 0.02% EDTA. The dissociation was stopped by the addition of Dulbecco's modified Eagle's medium (DMEM) with 4.5 g/liter of glucose, containing DNAse I grade II (final concentration 0.5 mg/mL) and 10% fetal calf serum (FCS). Cells were mechanically dissociated by three forced passages through the tip of a […]. Cells were then centrifuged at 180×g for 10 min at +4° C. on a layer of BSA (3.5%) in L15 medium. The supernatant was discarded, and the pellet was resuspended in a defined culture medium consisting of Neurobasal medium with a 2% solution of B27 supplement, 2 mmol/liter of L-glutamine, 2% of PS solution, and 10 ng/mL of brain-derived neurotrophic factor (BDNF). Viable cells were counted in a Neubauer cytometer, using the trypan blue exclusion test. The cells were seeded at a density of 20,000 per well in 96-well plates (immunostaining) precoated with poly-L-lysine and cultured at 37° C. in an air (95%)-CO2 (5%) incubator. The medium was changed every 2 days. The motor neurons were injured with glutamate after 13 days of culture.
On day 13 of culture, glutamate was added to a final concentration of 5 μM diluted in control medium in presence of the sulphate salt for 20 min. After 20 min, glutamate was washed and fresh culture medium with the sulphate salt was added for 48 hours.
(§2) After 14 or 15 days of culture (48 h after the glutamate injury), the cell culture supernatant was collected and the spinal cord MNs were fixed by a cold solution of ethanol (95%) and acetic acid (5%) for 5 min at −20° C. After permeabilization with 0.1% of saponin, cells were blocked for 2 h with PBS containing 1% fetal calf serum. Then, cells were incubated with: • a) mouse monoclonal antibody anti-microtubule associated protein 2 (MAP-2) at dilution of 1/400 in PBS containing 1% fetal calf serum and 0.1% of saponin. This antibody binds specifically MAP-2 present in cell bodies and neurites of all MNs. […] Nuclei of neurons were labeled by a fluorescent marker (Hoechst solution). • b) Rabbit polyclonal antibody anti-TDP43 at dilution of 1/100 in PBS containing 1% fetal calf serum and 0.1% of saponin. Cytoplasmic localization of TDP43 was investigated.
All images were taken under the same conditions (exposition time, gain and laser intensity). Analysis of different endpoints, were automatically performed using Custom Module Editor (Molecular Devices). […]
(§3) The endpoints were: • survival of MN (number of MN) • total neurite outgrowth of MN (expressed in μm) • TDP43 (extranuclear, eTDP43) in MN (expressed as area eTDP43-μm^2/number of MN) Statistical Analysis
All values are expressed as mean+/−SEM. […]

[2] = system: rat primary motor neurons; test: Rat primary motor neurons injured with glutamate, 24 h pre-treatment + 24 h post-injury treatment (Example 2); assay type: cell-based
Experimental: as §1, §2
All images were taken under the same conditions (exposition time, gain and laser intensity). Analysis of different endpoints, were automatically performed using Custom Module Editor (Molecular Devices). Motoneurons (MAP-2) were distinguished from interneurons (staining MAP-2) using the following morphological criteria: a cell body diameter […] and the presence of a minimum of three neuritic processes (Ferraiuolo et al. Brain 2011: 134; 2627-2641).
as §3
The culture was carried out as described in example 1.
On day 12 of culture, primary motor neurons were treated with the sulphate salt for 24 hours. […]

[3] = system: SOD1^G93A Tg rat spinal cord motor neurons; test: Primary culture of SOD1G93A Tg rat spinal cord motor neurons injured with glutamate (Example 3); assay type: cell-based
Experimental: The day of the dissection (from pregnant females at 14 days of gestation), a piece of each embryo head (˜3 mm^3) was placed in a 2 mL tube free DNase with a new scalpel. The DNA was extracted with the SYBR Green Extract-N-Amp tissue PCR kit (Sigma Aldrich). Briefly, 120 μL of extraction solution was put on each piece of embryo heads. Then, they were incubated for 10 min at room temperature. At the end of this incubation period, the heads were incubated for 5 min at 95° C. Immediately after this last incubation, 100 μL of neutralizing solution was added; each DNA extract was diluted at 1/40 and stored at +4° C. until use. SOD1^G93A gene was determined using genomic fragment with human SOD1 primers (5′-[…]-3′; 5′-[…]-3′). The SOD1 primers were diluted at 3 μM in sterile ultrapure water. Briefly, a mix for PCR was prepared with ultrapure water (4 μL per sample), primer at 3 μM (2 μL per sample) and Master Mix (10 μL per sample). In a PCR 96 wells plate, 16 μL of PCR mix was added in each well. 4 μL of each diluted DNA was added according to a plan deposit.
Rat spinal cord (SC) motor neurons were cultured as described by Martinou et al., Neuron. 1992, April; 8(4), 737-44 and Wang et al. Hum. Mol. Genet., 2013 Dec. 1; 22(23), 4706-19. Pregnant female rats of 14 days of gestation were killed by cervical dislocation. Fetuses were collected and immediately placed in ice-cold L15 Leibovitz medium with a 2% penicillin (10,000 U/mL) and streptomycin (10 mg/mL) solution (PS) and 1% bovine serum albumin (BSA). Each fetus was dispatched on numerating petri dish (35 mm of diameter). Tail of fetuses were cut, placed on 1.5 ml tube free DNAase; the DNA was extracted with the Extract-N-Amp Tissue Kit.
The genotyping of SOD tg fetuses was performed with the kit Fast SYBR Green Master Mix. This genotyping was made during the dissection of spinal cord, thus at the end of the dissection culture of SOD Tg spinal cord and WT spinal cord was done. Spinal cords were removed and placed in ice-cold medium of Leibovitz (L15). SC were treated for 20 min at 37° C. with a trypsin-EDTA solution at a final concentration of 0.05% trypsin and 0.02% EDTA. The dissociation was stopped by addition of Dulbecco's modified Eagle's medium (DMEM) with 4.5 g/liter of glucose, containing DNAse I grade II (final concentration 0.5 mg/mL) and 10% fetal calf serum (FCS). Cells were mechanically dissociated by three forced passages through the tip of a 10-ml pipette. Cells were then centrifuged at 180×g for 10 min at +4° C. on a layer of BSA (3.5%) in L15 medium. […] Viable cells were counted in a Neubauer cytometer, using the trypan blue exclusion test. […]

[4] = system: spinal cord/muscle neuromuscular junctions; test: Co-culture of human myoblasts and rat spinal cord explants injured with glutamate, neuromuscular junctions (Example 4); assay type: cell-based, human muscle cell line; conditions: 300 nM, glutamate 60 μM 20 min, 48 h
ALS [5] = conditions: injected intravenously, small subset of people with ALS, phase 3; cited from earlier work
ALS [6] = conditions: oral drug, ALS patients; cited from earlier work
[7] = dose dependence, 5 μM glutamate 20 min, 48 h

For CC(C)CN(CCCN1CCN(CCCNc2nc3ccccc3[nH]2)CC1)CC(C)C.O=S(=O)(O)O.O=S(=O)(O)O [N-(3-(4-(3-(diisobutylamino)propyl)piperazin-1-yl)propyl)-1H-benzo[d]imidazol-2-amine di-sulphate], the “Effect on motor neuron survival compared to the glutamate condition” value ([1]; 10 nM to 30 nM, 5 μM glutamate 20 min) was “positive and significant effect on survival”, the “Neurite network integrity (mean length, percentage of control)” value ([1]; 30 nM (maximal effect), 5 μM glutamate 20 min) was 80% and the “Motor neuron survival (mean survival, percentage of control)” value ([1]; 30 nM (maximal effect), 5 μM glutamate 20 min, glutamate alone 55%) was 82%. The “Extranuclear TDP-43 (cytoplasmic accumulation)” value ([1]; 10 and 30 nM, 5 μM glutamate 20 min) was “able to prevent the accumulation of TDP-43 in the cytoplasm”, the “Effect on neurite network after glutamate injury” value ([1]; all investigated doses) was “able to improve the neurite network after glutamate injury” and the “Effect on motor neuron survival compared to the glutamate condition” value ([2]; 3 nM to 30 nM, 24 h pre-incubation + 24 h post-injury) was “positive and significant effect on survival”. The “Extranuclear TDP-43 (abnormal distribution)” value ([2]; 10 nM to 30 nM, glutamate alone eTDP-43 signal 128% of control) was “able to fully prevent the abnormal distribution of TDP-43”, the “Neurite network integrity (mean length, percentage of control)” value ([2]; 30 nM (maximal effect), 24 h pre-incubation + 24 h post-injury) was 91% and the “Motor neuron survival (mean survival, percentage of control)” value ([2]; 30 nM (maximal effect), 24 h pre-incubation + 24 h post-injury, glutamate alone 65%) was 87%. For the same compound, the “Effect on neurite network (protection from glutamate damage)” value ([2]; all investigated doses, 24 h pre-incubation + 24 h post-injury) was “able to protect the neurite network from glutamate damage”, the “Protective effects compared with Riluzole and Edaravone” value ([3]; 300 nM versus Riluzole 1 μM and Edaravone 5 μM) was “greater than those of Riluzole or Edaravone” and the “Neuroprotection (number of MNs, neurite network, TDP-43 distribution)” value ([3]; all investigated doses, 5 μM glutamate 20 min, 48 h) was “neuroprotective”. The “Protective effect on neuronal survival” value [3, 7] was “dose-dependent”, the “Protective effect on the distribution of TDP-43” value [3, 7] was “dose-dependent” and the “Neuroprotective effect on neuromuscular junctions and neurite network against glutamatergic stress” value [4] was “successfully protected the neuromuscular junctions and the neurite network”. For the same compound, the “Number of NMJs” value [4] was “increased”, the “Total area of NMJs” value [4] was “increased” and the Total neurite network [4] was “increased”.
In the case of CC1=NN(c2ccccc2)C(=O)C1 [Edavarone], the “Decline of ALS Functional Rating Scale-Revised score compared with placebo” value (ALS [5]) is given as “significantly smaller decline”.
In the case of Nc1nc2ccc(OC(F)(F)F)cc2s1 [Riluzole], the “Effect on motor and respiratory functions” value (ALS [6]) is given as “no effect”.
